According to ChEMBL document CHEMBL4819072, “Radioligand and computational insight in structure - Activity relationship of saccharin derivatives being ipsapirone and revospirone analogues” (Bioorg Med Chem Lett, 2021):

biological target: 5-hydroxytryptamine receptor 2A (Homo sapiens, UniProt P28223); assay: Displacement of [3H]-ketanserin from human 5-HT2AR expressed in CHO cells; format: cell-based
Sequence (P28223 whole entry): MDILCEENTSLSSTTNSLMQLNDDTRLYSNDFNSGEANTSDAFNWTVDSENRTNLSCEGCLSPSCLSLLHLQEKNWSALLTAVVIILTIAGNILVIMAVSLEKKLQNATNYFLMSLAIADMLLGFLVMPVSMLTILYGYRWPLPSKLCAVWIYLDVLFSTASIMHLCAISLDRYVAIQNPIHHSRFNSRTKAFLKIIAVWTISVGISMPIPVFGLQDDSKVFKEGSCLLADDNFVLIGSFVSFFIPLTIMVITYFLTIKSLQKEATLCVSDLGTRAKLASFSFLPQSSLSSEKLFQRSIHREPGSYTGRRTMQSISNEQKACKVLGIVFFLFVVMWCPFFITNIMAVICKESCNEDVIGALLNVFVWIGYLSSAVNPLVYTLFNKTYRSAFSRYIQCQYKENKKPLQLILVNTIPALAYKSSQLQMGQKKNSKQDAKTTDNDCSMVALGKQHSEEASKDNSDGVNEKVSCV

| SMILES | Ki [nM] |
| --- | --- |
| O=C1c2ccccc2S(=O)(=O)N1CCCCCN1CCN(c2cccc3ccccc23)CC1 | 105 |
| O=C1c2ccccc2S(=O)(=O)N1CCCCCN1CCN(c2ccccn2)CC1 | 1440 |
| O=C1c2ccccc2S(=O)(=O)N1CCCCCCN1CCN(c2cccc(Cl)c2Cl)CC1 | 299 |
| O=C1c2ccccc2S(=O)(=O)N1CCCCCN1CCN(c2cccc(Cl)c2Cl)CC1 | 126 |
| O=C1c2ccccc2S(=O)(=O)N1CCCCCN1CCN(c2ccc(Cl)cc2)CC1 | 139 |
| COc1ccccc1N1CCN(Cc2ccc(CN3C(=O)c4ccccc4S3(=O)=O)cc2)CC1 | 4750 |
| O=C1c2ccccc2S(=O)(=O)N1CCCCCN1CCN(c2ncccn2)CC1 | 6310 |
| O=C1c2ccccc2S(=O)(=O)N1CCCCCN1CCN(c2cccc(C(F)(F)F)c2)CC1 | 162 |
| O=C1c2ccccc2S(=O)(=O)N1CCCCCN1CCN(c2ccccc2)CC1 | 313 |
| O=C1c2ccccc2S(=O)(=O)N1CCCCCCN1CCN(c2ccc(Cl)cc2)CC1 | 299 |

biological target: D(2) dopamine receptor (Homo sapiens, UniProt P14416); assay: Displacement of [3H]-raclopride from human D2R expressed in human HEK293 cells; format: cell-based
Sequence (P14416 whole entry): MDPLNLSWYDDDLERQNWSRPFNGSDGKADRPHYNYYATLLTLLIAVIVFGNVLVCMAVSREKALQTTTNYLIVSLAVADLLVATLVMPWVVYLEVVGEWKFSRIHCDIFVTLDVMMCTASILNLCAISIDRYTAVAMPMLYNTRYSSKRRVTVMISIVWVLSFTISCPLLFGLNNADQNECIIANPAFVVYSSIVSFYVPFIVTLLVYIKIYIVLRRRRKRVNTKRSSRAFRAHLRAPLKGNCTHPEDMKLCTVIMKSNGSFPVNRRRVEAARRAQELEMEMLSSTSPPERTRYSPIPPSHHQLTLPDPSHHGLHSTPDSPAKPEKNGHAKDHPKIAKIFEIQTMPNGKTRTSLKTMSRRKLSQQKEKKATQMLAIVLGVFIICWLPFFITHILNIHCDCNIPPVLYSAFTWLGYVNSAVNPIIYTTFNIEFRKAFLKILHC

| SMILES | Ki [nM] |
| --- | --- |
| O=C1c2ccccc2S(=O)(=O)N1CCCCCN1CCN(c2cccc3ccccc23)CC1 | 20 |
| O=C1c2ccccc2S(=O)(=O)N1CCCCCN1CCN(c2ccccn2)CC1 | 92 |
| O=C1c2ccccc2S(=O)(=O)N1CCCCCN1CCN(c2cccc(Cl)c2Cl)CC1 | 17 |
| O=C1c2ccccc2S(=O)(=O)N1CCCCCN1CCN(c2ccc(Cl)cc2)CC1 | 254 |
| COc1ccccc1N1CCN(Cc2ccc(CN3C(=O)c4ccccc4S3(=O)=O)cc2)CC1 | 2 |
| O=C1c2ccccc2S(=O)(=O)N1CCCCCN1CCN(c2ncccn2)CC1 | 954 |
| O=C1c2ccccc2S(=O)(=O)N1CCCCCN1CCN(c2cccc(C(F)(F)F)c2)CC1 | 34 |
| O=C1c2ccccc2S(=O)(=O)N1CCCCCN1CCN(c2ccccc2)CC1 | 165 |

biological target: 5-hydroxytryptamine receptor 6 (Homo sapiens, UniProt P50406); assay: Displacement of [3H]-LSD from human 5-HT6R expressed in human HEK293 cells; format: cell-based
Sequence (P50406 whole entry): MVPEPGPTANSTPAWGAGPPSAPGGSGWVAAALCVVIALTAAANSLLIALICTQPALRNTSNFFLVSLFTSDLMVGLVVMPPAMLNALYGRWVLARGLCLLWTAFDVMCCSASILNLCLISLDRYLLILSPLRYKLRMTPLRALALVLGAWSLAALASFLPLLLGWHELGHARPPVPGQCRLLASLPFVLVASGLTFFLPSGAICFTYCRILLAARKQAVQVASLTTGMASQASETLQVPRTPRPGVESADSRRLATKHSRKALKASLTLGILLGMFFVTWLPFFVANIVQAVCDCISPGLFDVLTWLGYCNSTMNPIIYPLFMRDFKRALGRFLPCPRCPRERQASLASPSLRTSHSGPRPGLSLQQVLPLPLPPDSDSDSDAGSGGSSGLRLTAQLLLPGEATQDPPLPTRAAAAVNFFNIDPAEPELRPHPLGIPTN

| SMILES | Ki [nM] |
| --- | --- |
| O=C1c2ccccc2S(=O)(=O)N1CCCCCN1CCN(c2cccc3ccccc23)CC1 | 101 |
| O=C1c2ccccc2S(=O)(=O)N1CCCCCN1CCN(c2ccccn2)CC1 | 2630 |
| O=C1c2ccccc2S(=O)(=O)N1CCCCCCN1CCN(c2cccc(Cl)c2Cl)CC1 | 72 |
| O=C1c2ccccc2S(=O)(=O)N1CCCCCN1CCN(c2cccc(Cl)c2Cl)CC1 | 197 |
| O=C1c2ccccc2S(=O)(=O)N1CCCCCN1CCN(c2ccc(Cl)cc2)CC1 | 703 |
| COc1ccccc1N1CCN(Cc2ccc(CN3C(=O)c4ccccc4S3(=O)=O)cc2)CC1 | 10100 |
| O=C1c2ccccc2S(=O)(=O)N1CCCCCN1CCN(c2ncccn2)CC1 | 7100 |
| O=C1c2ccccc2S(=O)(=O)N1CCCCCN1CCN(c2cccc(C(F)(F)F)c2)CC1 | 1350 |
| O=C1c2ccccc2S(=O)(=O)N1CCCCCCN1CCN(c2ncccn2)CC1 | 5710 |
| O=C1c2ccccc2S(=O)(=O)N1CCCCCN1CCN(c2ccccc2)CC1 | 1840 |
| O=C1c2ccccc2S(=O)(=O)N1CCCCCCN1CCN(c2ccc(Cl)cc2)CC1 | 72 |

biological target: 5-hydroxytryptamine receptor 7 (Homo sapiens, UniProt P34969); assay: Displacement of [3H]-5CT from human 5-HT7R expressed in human HEK293 cells; format: cell-based
Sequence (P34969 whole entry): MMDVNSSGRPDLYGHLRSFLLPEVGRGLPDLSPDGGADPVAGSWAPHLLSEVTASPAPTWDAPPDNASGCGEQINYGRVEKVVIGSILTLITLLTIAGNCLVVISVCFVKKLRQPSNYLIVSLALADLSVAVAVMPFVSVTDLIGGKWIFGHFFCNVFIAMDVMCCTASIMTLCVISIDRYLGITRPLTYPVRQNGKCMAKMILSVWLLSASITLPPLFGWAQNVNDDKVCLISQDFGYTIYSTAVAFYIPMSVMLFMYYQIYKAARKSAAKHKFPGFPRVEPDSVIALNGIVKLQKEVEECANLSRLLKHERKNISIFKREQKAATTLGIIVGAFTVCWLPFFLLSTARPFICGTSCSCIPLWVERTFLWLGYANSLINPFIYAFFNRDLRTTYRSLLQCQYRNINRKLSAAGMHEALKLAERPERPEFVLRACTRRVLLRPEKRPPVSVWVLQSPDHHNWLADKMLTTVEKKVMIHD

| SMILES | Ki [nM] |
| --- | --- |
| O=C1c2ccccc2S(=O)(=O)N1CCCCCN1CCN(c2cccc3ccccc23)CC1 | 36 |
| O=C1c2ccccc2S(=O)(=O)N1CCCCCN1CCN(c2ccccn2)CC1 | 179 |
| O=C1c2ccccc2S(=O)(=O)N1CCCCCCN1CCN(c2cccc(Cl)c2Cl)CC1 | 487 |
| O=C1c2ccccc2S(=O)(=O)N1CCCCCN1CCN(c2cccc(Cl)c2Cl)CC1 | 149 |
| O=C1c2ccccc2S(=O)(=O)N1CCCCCN1CCN(c2ccc(Cl)cc2)CC1 | 191 |
| COc1ccccc1N1CCN(Cc2ccc(CN3C(=O)c4ccccc4S3(=O)=O)cc2)CC1 | 97 |
| O=C1c2ccccc2S(=O)(=O)N1CCCCCN1CCN(c2ncccn2)CC1 | 2670 |
| O=C1c2ccccc2S(=O)(=O)N1CCCCCN1CCN(c2cccc(C(F)(F)F)c2)CC1 | 35 |
| O=C1c2ccccc2S(=O)(=O)N1CCCCCCN1CCN(c2ncccn2)CC1 | 2510 |
| O=C1c2ccccc2S(=O)(=O)N1CCCCCN1CCN(c2ccccc2)CC1 | 148 |
| O=C1c2ccccc2S(=O)(=O)N1CCCCCCN1CCN(c2ccc(Cl)cc2)CC1 | 487 |

biological target: T1, 5-hydroxytryptamine receptor 1A (Homo sapiens, UniProt P08908); assay: Displacement of [3H]-[…] from human 5-HT1AR expressed in human HEK293 cells; format: cell-based
T1 sequence (P08908 whole entry): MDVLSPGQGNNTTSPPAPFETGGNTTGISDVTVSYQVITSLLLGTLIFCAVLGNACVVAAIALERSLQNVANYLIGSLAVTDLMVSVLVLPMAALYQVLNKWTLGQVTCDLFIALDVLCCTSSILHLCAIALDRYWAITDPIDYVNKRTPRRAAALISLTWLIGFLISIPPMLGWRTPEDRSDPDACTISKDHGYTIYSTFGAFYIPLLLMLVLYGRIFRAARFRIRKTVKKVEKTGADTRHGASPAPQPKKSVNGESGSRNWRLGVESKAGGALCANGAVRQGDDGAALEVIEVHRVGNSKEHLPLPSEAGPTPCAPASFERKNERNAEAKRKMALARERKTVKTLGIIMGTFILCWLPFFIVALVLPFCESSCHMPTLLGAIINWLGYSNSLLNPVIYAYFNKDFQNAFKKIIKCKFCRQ

| SMILES | Ki [nM] |
| --- | --- |
| O=C1c2ccccc2S(=O)(=O)N1CCCCCN1CCN(c2cccc3ccccc23)CC1 | 16 |
| O=C1c2ccccc2S(=O)(=O)N1CCCN1CCN(c2ncccn2)CC1 [REVOSPIRONE] | 2 |
| O=C1c2ccccc2S(=O)(=O)N1CCCCCN1CCN(c2ccccn2)CC1 | 13 |
| COc1ccccc1N1CCN(CCCCCCN2C(=O)c3ccccc3C2=O)CC1 | 22 |
| O=C1c2ccccc2C(=O)N1CCCCCN1CCN(c2ccccc2)CC1 | 8.5 |
| NC(=O)c1ccccc1OCCCN1CCN(c2ccccc2)CC1 | 143 |
| COc1cccc(N2CCN(CCN3C(=O)c4ccccc4C3=O)CC2)c1 | > 1000 |
| O=C1c2ccccc2S(=O)(=O)N1CCCCCN1CCN(c2cccc(Cl)c2Cl)CC1 | 29 |
| COc1cccc(N2CCN(CCCCCCn3c(=O)oc4ccccc4c3=O)CC2)c1 | 18 |
| O=C1c2ccccc2S(=O)(=O)N1CCCCCN1CCN(c2ccc(Cl)cc2)CC1 | 101 |
| COc1ccccc1N1CCN(CCCCCCOc2ccccc2C(N)=O)CC1 | 3 |
| COc1ccccc1N1CCN(Cc2ccc(CN3C(=O)c4ccccc4S3(=O)=O)cc2)CC1 | 77 |
| O=C1c2ccccc2S(=O)(=O)N1CCCCCN1CCN(c2ncccn2)CC1 | 6 |
| O=C1c2ccccc2S(=O)(=O)N1CCCCCN1CCN(c2cccc(C(F)(F)F)c2)CC1 | 21 |
| O=C1c2ccccc2C(=O)N1CCCCN1CCN(c2ccccc2)CC1 | 10 |
| COc1cccc(N2CCN(CCCCCn3c(=O)oc4ccccc4c3=O)CC2)c1 | 20 |

| SMILES | Ki [nM] |
| --- | --- |
| COc1cccc(N2CCN(CCCOc3ccccc3C(N)=O)CC2)c1 | 21 |
| O=C1c2ccccc2S(=O)(=O)N1CCCCCN1CCN(c2ccccc2)CC1 | 16 |
| COc1ccccc1N1CCN(CCCCCN2C(=O)c3ccccc3C2=O)CC1 | 7.2 |
| O=C1c2ccccc2C(=O)N1CCCN1CCN(c2ccccc2)CC1 | 200 |
| COc1cccc(N2CCN(CCCN3C(=O)c4ccccc4C3=O)CC2)c1 | 13 |
| O=C1c2ccccc2C(=O)N1CCCCCCN1CCN(c2ccccc2)CC1 | 1 |
| O=c1oc2ccccc2c(=O)n1CCCN1CCN(c2ccccc2)CC1 | 402 |
| O=C1c2ccccc2C(=O)N1CCN1CCN(c2ccccc2)CC1 | > 1000 |
| COc1cccc(N2CCN(CCCCCOc3ccccc3C(N)=O)CC2)c1 | 4 |
| O=c1oc2ccccc2c(=O)n1CCCCN1CCN(c2ccccc2)CC1 | 2.8 |
| COc1cccc(N2CCN(CCOc3ccccc3C(N)=O)CC2)c1 | 155 |
| COc1cccc(N2CCN(CCCCOc3ccccc3C(N)=O)CC2)c1 | 38 |
| COc1cccc(N2CCN(CCCCn3c(=O)oc4ccccc4c3=O)CC2)c1 | 3.2 |
| COc1cccc(N2CCN(CCCn3c(=O)oc4ccccc4c3=O)CC2)c1 | 46 |
| O=C1c2ccccc2S(=O)(=O)N1CCN1CCN(c2cccc(C(F)(F)F)c2)CC1 | > 5000 |
